In PubChem BioAssay (NCI):
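Where inhibition never reached the appropriate level, the endpoint shown equals the highest concentration tested. Otherwise, values were interpolated linearly from a five-concentration, 48-hour dose response in 96-well plates. The concentration for full growth arrest is given as TGI.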

Key:
Test in all cases: NCI anticancer screen, dose series, 48 h
ACHN renal = tested on: ACHN renal
HS 578T breast = tested on: HS 578T breast
DU-145 prostate = tested on: DU-145 prostate
SF-268 CNS = tested on: SF-268 CNS
SK-MEL-28 melanoma = tested on: SK-MEL-28 melanoma
U251 CNS = tested on: U251 CNS
T-47D breast = tested on: T-47D breast
HT29 colon = tested on: HT29 colon
HCT-116 colon = tested on: HCT-116 colon
OVCAR-4 ovarian = tested on: OVCAR-4 ovarian
SK-MEL-5 melanoma = tested on: SK-MEL-5 melanoma
MALME-3M melanoma = tested on: MALME-3M melanoma
KM12 colon = tested on: KM12 colon
MCF7 breast = tested on: MCF7 breast
EKVX NSCLC = tested on: EKVX NSCLC
MDA-MB-231 breast = tested on: MDA-MB-231 breast
HL-60(TB) leukemia = tested on: HL-60(TB) leukemia
RPMI-8226 leukemia = tested on: RPMI-8226 leukemia
UACC-62 melanoma = tested on: UACC-62 melanoma
MOLT-4 leukemia = tested on: MOLT-4 leukemia
CCRF-CEM leukemia = tested on: CCRF-CEM leukemia
NCI-H460 lung = tested on: NCI-H460 lung
SR leukemia = tested on: SR leukemia
MDA-N = tested on: MDA-N
786-0 renal = tested on: 786-0 renal
HOP-62 NSCLC = tested on: HOP-62 NSCLC
OVCAR-8 ovarian = tested on: OVCAR-8 ovarian
LOX IMVI melanoma = tested on: LOX IMVI melanoma
RXF 393 renal = tested on: RXF 393 renal
HCC-2998 colon = tested on: HCC-2998 colon
MDA-MB-435 = tested on: MDA-MB-435
SK-OV-3 ovarian = tested on: SK-OV-3 ovarian
COLO 205 colon = tested on: COLO 205 colon
NCI-H226 lung = tested on: NCI-H226 lung
IGROV1 ovarian = tested on: IGROV1 ovarian
M14 melanoma = tested on: M14 melanoma
CAKI-1 renal = tested on: CAKI-1 renal
SW-620 colon = tested on: SW-620 colon
NCI-H23 lung = tested on: NCI-H23 lung
NCI/ADR-RES ovarian = tested on: NCI/ADR-RES ovarian
SN12C renal = tested on: SN12C renal
UACC-257 melanoma = tested on: UACC-257 melanoma
OVCAR-5 ovarian = tested on: OVCAR-5 ovarian
A549 NSCLC = tested on: A549 NSCLC
HOP-92 NSCLC = tested on: HOP-92 NSCLC
A498 renal = tested on: A498 renal
PC-3 prostate = tested on: PC-3 prostate
HCT-15 colon = tested on: HCT-15 colon
SK-MEL-2 melanoma = tested on: SK-MEL-2 melanoma
SF-539 CNS = tested on: SF-539 CNS
SNB-75 CNS = tested on: SNB-75 CNS
K-562 leukemia = tested on: K-562 leukemia
SF-295 CNS = tested on: SF-295 CNS
NCI-H522 lung = tested on: NCI-H522 lung
UO-31 renal = tested on: UO-31 renal
OVCAR-3 ovarian = tested on: OVCAR-3 ovarian
TK-10 renal = tested on: TK-10 renal
SNB-19 CNS = tested on: SNB-19 CNS
BT-549 breast = tested on: BT-549 breast

Measured: TGI

CCOC(=O)c1c(SCc2ccccc2)nc2c3ccccc3ccn12
58.3 µM: HS 578T breast
27.5 µM: HOP-92 NSCLC
not listed: UO-31 renal | OVCAR-3 ovarian | TK-10 renal | SNB-19 CNS | BT-549 breast
> 100 µM: all other assays above

CCCNC(=S)N=Nc1c(O)[nH]c2ccccc12
not listed: BT-549 breast
> 100 µM: all other assays above

CSc1ncnc2c1cnn2Cc1cn(CCCCO)nn1
not listed: HL-60(TB) leukemia | NCI/ADR-RES ovarian
> 100 µM: all other assays above

COC(=O)c1cc(C)ccc1/C=C1\Cc2cccc(C)c2C1=O
58.7 µM: NCI-H522 lung
25.9 µM: SK-MEL-5 melanoma
61.8 µM: MDA-N
62.2 µM: PC-3 prostate
96 µM: SN12C renal
81.4 µM: OVCAR-8 ovarian
66.2 µM: LOX IMVI melanoma
96.9 µM: MALME-3M melanoma
not listed: UACC-62 melanoma | MDA-MB-435 | SK-OV-3 ovarian | COLO 205 colon | NCI/ADR-RES ovarian | SK-MEL-2 melanoma
> 100 µM: all other assays above

CN1CCN(C(=S)N(C(=O)c2ccco2)C2CCCCC2)CC1
not listed: HCT-116 colon | EKVX NSCLC | HL-60(TB) leukemia | MOLT-4 leukemia | HOP-62 NSCLC | SK-OV-3 ovarian | CAKI-1 renal | NCI/ADR-RES ovarian | A498 renal | PC-3 prostate | SF-539 CNS
> 100 µM: all other assays above
